One series deals with Rattus norvegicus. Description: Volume of distribution in rat at 5 mg/kg, po. Format: ADME, organism-based. Further details: dose 5 mg/kg, route oral. Particulars: in vivo.
Series [1] can be described thus: AUC in rat at 5 mg/kg, po. The series is classed as ADME, organism-based. Also noted: dose 5 mg/kg, route oral. The settings on record: plasma.
Series [2] in a line: Cmax in cynomolgus monkey at 6 mg/kg, po. The series is classed as ADME, organism-based, Macaca fascicularis. Further details: dose 6 mg/kg, route oral. The settings on record: in vivo.
Series [3] deals with T1, Free fatty acid receptor 4 (Homo sapiens) (UniProt Q5NUL3).
T1 sequence (whole entry): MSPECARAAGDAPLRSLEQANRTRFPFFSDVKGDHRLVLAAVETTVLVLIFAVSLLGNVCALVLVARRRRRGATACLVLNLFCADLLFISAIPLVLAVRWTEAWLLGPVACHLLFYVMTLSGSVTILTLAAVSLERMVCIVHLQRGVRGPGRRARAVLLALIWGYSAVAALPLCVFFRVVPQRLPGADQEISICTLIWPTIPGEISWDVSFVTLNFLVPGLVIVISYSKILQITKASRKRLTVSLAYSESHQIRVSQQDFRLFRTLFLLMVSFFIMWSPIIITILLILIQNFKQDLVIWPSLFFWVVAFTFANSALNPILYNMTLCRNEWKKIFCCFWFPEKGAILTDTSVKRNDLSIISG
Description: Agonist activity at GPR120 (unknown origin) up to 10 uM.

Series [4] can be described thus: Plasma clearance in beagle dog at 1 mg/kg, po. Format: ADME, organism-based, Canis lupus familiaris. Also noted: dose 1 mg/kg, route oral.
A short description of series [5]: Cmax in rat at 5 mg/kg, po. Further details: dose 5 mg/kg, route oral. Particulars: in vivo. The series is classed as ADME, organism-based.
Series [6] is described as follows: Inhibition of CYP450 (unknown origin). The series is classed as ADME, Homo sapiens.
Series [7] addresses T2, Free fatty acid receptor 1 (Homo sapiens, UniProt O14842). Description: Agonist activity at human GPR40 transfected in CHO cells by calcium flux assay relative to TAK-875. The series is classed as functional, cell-based. (Calcium flux is commonly read through the fluorescence of an indicator in the cells.)
Series [8] can be described thus: Lipophilicity, log D of the compound. Format: physicochemical. The settings on record: octanol/water.
The nature of series [9]: Plasma clearance in cynomolgus monkey at 6 mg/kg, po. The series is classed as ADME, organism-based, Macaca fascicularis. Further details: dose 6 mg/kg, route oral.
Series [10] is described as follows: Cmax in beagle dog at 1 mg/kg, po. Further details: dose 1 mg/kg, route oral. Particulars: in vivo. The series is classed as ADME, organism-based, Canis lupus familiaris.
The nature of series [11]: AUC in cynomolgus monkey at 6 mg/kg, po. The series is classed as ADME, organism-based, Macaca fascicularis. Also noted: dose 6 mg/kg, route oral. The settings on record: plasma.
Series [12] can be described thus: Half life in beagle dog at 1 mg/kg, po. Format: ADME, organism-based, Canis lupus familiaris. Also noted: dose 1 mg/kg, route oral. The settings on record: in vivo.
The nature of series [13]: AUC in beagle dog at 1 mg/kg, po. Further details: dose 1 mg/kg, route oral. The series is classed as ADME, organism-based, Canis lupus familiaris. Particulars: plasma.
Series [14] relates to Rhesus monkey. Description: Antidiabetic activity in obese type 2 diabetic rhesus monkey model assessed as inhibition of blood glucose excursion at 20 mg/kg, po administered 1 to 2 hrs prior to dextrose challenge measured for 120 mins by IVGTT relative to control. The series is classed as functional. Particulars: Macaca mulatta.
Series [15] is described as follows: Half life in cynomolgus monkey at 6 mg/kg, po. Format: ADME, organism-based, Macaca fascicularis. Also noted: dose 6 mg/kg, route oral. The settings on record: in vivo.
Series [16] relates to Rhesus monkey. Description: Antidiabetic activity in obese type 2 diabetic rhesus monkey model assessed as inhibition of blood glucose excursion at 6 mg/kg, po administered 1 to 2 hrs prior to dextrose challenge measured for 120 mins by IVGTT relative to control. Format: functional. The settings on record: Macaca mulatta.
Series [17] relates to Rhesus monkey. The experiment in a line: Antidiabetic activity in obese type 2 diabetic rhesus monkey model assessed as inhibition of blood glucose excursion at 6 mg/kg, po administered 1 to 2 hrs prior to dextrose challenge measured for 60 mins by IVGTT relative to control. The series is classed as functional. Particulars: Macaca mulatta.
The target of series [18] is T3, Free fatty acid receptor 2 (Homo sapiens) (UniProt O15552).
T3 sequence (whole entry): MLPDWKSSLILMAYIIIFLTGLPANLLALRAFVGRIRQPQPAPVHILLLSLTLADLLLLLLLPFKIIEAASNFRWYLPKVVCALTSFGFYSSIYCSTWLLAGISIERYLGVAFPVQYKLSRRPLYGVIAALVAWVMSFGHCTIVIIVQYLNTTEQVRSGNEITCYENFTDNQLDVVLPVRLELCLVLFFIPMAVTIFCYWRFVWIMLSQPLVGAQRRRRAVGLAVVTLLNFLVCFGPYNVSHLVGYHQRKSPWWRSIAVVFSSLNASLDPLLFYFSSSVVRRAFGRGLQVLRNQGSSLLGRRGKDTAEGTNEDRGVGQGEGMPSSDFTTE
Description: Agonist activity at GPR43 (unknown origin) up to 10 uM.

Another series deals with Canis familiaris. Description: Volume of distribution in beagle dog at 1 mg/kg, po. Format: ADME, organism-based, Canis lupus familiaris. Also noted: dose 1 mg/kg, route oral. Particulars: in vivo.
The nature of series [19]: Plasma clearance in rat at 5 mg/kg, po. The series is classed as ADME, organism-based. Further details: dose 5 mg/kg, route oral.
Series [20] concerns Mus musculus. Description: Antidiabetic activity in high fat feasted ICR mouse assessed as inhibition of blood glucose excursion at 50 mg/kg, po administered 15 mins prior to dextrose challenge measured for 120 mins by OGTT relative to control. Format: functional.
Series [21] deals with Free fatty acid receptor 1 (Rattus norvegicus) (UniProt Q8K3T4). Description: Agonist activity at GPR40 in rat INS-1 cells assessed as glucose-stimulated insulin secretion relative to TAK-875. The series is classed as cell-based. Particulars: INS1.
Sequence of Free fatty acid receptor 1 (Rattus norvegicus) (Q8K3T4 whole entry): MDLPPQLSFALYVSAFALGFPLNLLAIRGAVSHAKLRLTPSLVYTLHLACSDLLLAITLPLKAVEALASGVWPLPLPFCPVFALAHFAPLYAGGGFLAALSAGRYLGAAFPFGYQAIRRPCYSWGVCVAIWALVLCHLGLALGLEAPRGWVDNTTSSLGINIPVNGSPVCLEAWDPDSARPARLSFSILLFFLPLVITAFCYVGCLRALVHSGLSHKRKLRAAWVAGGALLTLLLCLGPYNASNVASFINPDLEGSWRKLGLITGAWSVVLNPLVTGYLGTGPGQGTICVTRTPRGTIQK
Series [22] deals with Rhesus monkey. Description: Antidiabetic activity in obese type 2 diabetic rhesus monkey model assessed as inhibition of blood glucose excursion at 20 mg/kg, po administered 1 to 2 hrs prior to dextrose challenge measured for 60 mins by IVGTT relative to control. The series is classed as functional. Particulars: Macaca mulatta.
Series [23] concerns the target T2, Free fatty acid receptor 1. Description: Agonist activity at human GPR40 transfected in CHO cells by calcium flux assay. Format: functional, cell-based.
The target in series [24] is T4, Free fatty acid receptor 3 (Homo sapiens) (UniProt O14843).
T4 sequence (whole entry): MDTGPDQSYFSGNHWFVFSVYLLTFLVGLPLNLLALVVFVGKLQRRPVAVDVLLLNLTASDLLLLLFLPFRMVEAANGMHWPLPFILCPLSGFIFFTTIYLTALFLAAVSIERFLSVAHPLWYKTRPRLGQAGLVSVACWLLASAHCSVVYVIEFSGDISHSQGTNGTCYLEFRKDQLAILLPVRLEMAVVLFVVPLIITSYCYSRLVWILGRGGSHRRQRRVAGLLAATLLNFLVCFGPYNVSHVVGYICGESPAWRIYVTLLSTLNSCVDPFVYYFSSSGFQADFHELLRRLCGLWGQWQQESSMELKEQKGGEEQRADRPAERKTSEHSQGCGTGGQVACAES
The experiment in a line: Agonist activity at GPR41 (unknown origin) up to 10 uM.

The nature of series [25]: Half life in rat at 5 mg/kg, po. The series is classed as ADME, organism-based. Also noted: dose 5 mg/kg, route oral. Particulars: in vivo.
Another series concerns Cynomolgus monkey. The experiment in a line: Volume of distribution in cynomolgus monkey at 6 mg/kg, po. Further details: dose 6 mg/kg, route oral. The settings on record: in vivo. The series is classed as ADME, organism-based, Macaca fascicularis.
For series [26], the system named is Mus musculus. Description: Antidiabetic activity in high fat feasted ICR mouse assessed as inhibition of blood glucose excursion administered 15 mins prior to dextrose challenge measured for 120 mins by OGTT relative to control. Format: functional.
Series [27] is described as follows: Oral bioavailability in rat at 5 mg/kg. Format: ADME, organism-based. The settings on record: in vivo.
In series [28] the target is Free fatty acid receptor 1 (Rattus norvegicus, UniProt Q8K3T4). The experiment in a line: Agonist activity at GPR40 in rat INS-1 cells assessed as glucose-stimulated insulin secretion. Format: cell-based, INS1.
Sequence of Free fatty acid receptor 1 (Rattus norvegicus, UniProt Q8K3T4) (Q8K3T4 whole entry): as the sequence (Q8K3T4 whole entry) above
Series [29] concerns Mus musculus. The experiment in a line: Antidiabetic activity in high fat feasted ICR mouse assessed as reduction of blood glucose excursion at 20 mg/kg, po administered 15 mins prior to dextrose challenge measured for 120 mins by OGTT. The series is classed as functional, organism-based. Also noted: dose 20 mg/kg.

The source made the active and inactive calls. No cut-off for these calls is given here.

T2 sequence (O14842 whole entry): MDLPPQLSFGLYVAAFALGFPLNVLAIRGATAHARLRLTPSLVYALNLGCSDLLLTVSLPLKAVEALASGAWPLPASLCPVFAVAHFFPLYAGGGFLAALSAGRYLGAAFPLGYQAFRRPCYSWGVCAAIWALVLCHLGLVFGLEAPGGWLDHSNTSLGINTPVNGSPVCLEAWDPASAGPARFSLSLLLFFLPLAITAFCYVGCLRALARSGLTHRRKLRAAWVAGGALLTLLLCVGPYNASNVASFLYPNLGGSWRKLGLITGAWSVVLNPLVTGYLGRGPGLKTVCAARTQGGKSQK

In the case of `O=C(O)C[C@@H]1COc2cc3c(cc21)OC[C@@H](c1cccc(Cl)c1)O3`, the Vd was 0.21 L/kg in the series with Rattus norvegicus, 0.71 L/kg with Canis familiaris and 0.85 L/kg with Cynomolgus monkey. Also, the values for the AUC in series [1], in series [11] and in [13] were 666 µg·h/mL, 126 µg·h/mL and 35.6 µg·h/mL, respectively. Besides, the Cmax (as a rule, the peak of the concentration-time curve) stood at 19700 ng/mL in series [2], 22000 ng/mL in series [5] and 2670 ng/mL in series [10]. The result in [3], in [18] and in series [24] was inactive. The CL/F (as a rule, the apparent clearance, not corrected for the fraction that reaches the circulation) is 0.333 mL/min/kg in series [4], 0.833 mL/min/kg in [9] and 0.0833 mL/min/kg in series [19]. Besides, the IC50 (as a rule, the concentration needed to halve the response being measured) in series [6] was over 50000 nM. In addition, the Emax (usually the size of the effect at its maximum, as opposed to the concentration needed) amounted to 87% in [7] and 36.8% in [21]. Moreover, in series [8], the logD – broadly, lipophilicity at a set pH, counting ionised and neutral species – is under 3. Moreover, the figures for the half-life in [12], in series [15] and in series [25] were 21.1 h, 12.9 h and 27.5 h, respectively. Moreover, the inhibition in vivo (as a rule, the share of the control response that was lost under treatment) at 20 mg/kg came out at 13.2% in the series with Rhesus monkey [14] and 16.4% with Rhesus monkey [22]. Besides, the inhibition in vivo at 6 mg/kg is 10.7% in the series with Rhesus monkey [16] and 7.71% with Rhesus monkey [17]. Further, the inhibition in vivo at 50 mg/kg with Mus musculus [20] was 11%. Besides, the EC50 (as a rule, the concentration that produces a half-maximal response) in series [23] is 34.2 nM.

As for `Cc1ccccc1-c1cccc([C@H]2COc3cc4c(cc3O2)OC[C@H]4CC(=O)O)c1`, the Emax in series [7] came to 91%. Moreover, the “inhibition (INH)” value in the series with Mus musculus [26] is on record as 9.7%. Also, the EC50 in series [23] came to 19.1 nM.

As to `O=C(O)C[C@@H]1COc2cc3c(cc21)OC[C@@H](c1cccc(C(F)(F)F)c1)O3`, the values for the Vd in the series with Rattus norvegicus and with Cynomolgus monkey were 0.23 L/kg and 2.38 L/kg, respectively. The AUC (in general, the area under the concentration-time curve, a measure of exposure) in [1] stood at 427 µg·h/mL; in series [11], 54.7 µg·h/mL; in series [13], 47.4 µg·h/mL. The Cmax in [2] turned out to be 7700 ng/mL; in [5], 19400 ng/mL; in [10], 2580 ng/mL. The Emax in [7] was 99.5%; in series [21], 43.6%. Also, the CL/F in [9] is 1.67 mL/min/kg; in [19], 0.167 mL/min/kg. Besides, the half-life (in general, the time in which the quantity being followed falls by half) in series [12] is 19.1 h; in [15] it was 16.4 h; in [25] it was 16.1 h. Besides, in series [27], the bioavailability (as a rule, dose-corrected exposure relative to a reference, in per cent) was determined as 100%. Moreover, the inhibition in vivo at 50 mg/kg with Mus musculus [20] was 13.3%. In series [23], the EC50 came to 11.3 nM.

As for `O=C(O)C[C@@H]1COc2cc3c(cc21)OC[C@@H](c1cccc(Br)c1)O3`, the Vd stood at 0.25 L/kg in the series on Rattus norvegicus, 0.93 L/kg in the series on Canis familiaris and 1.02 L/kg with Cynomolgus monkey. Further, the values for the AUC in series [1], in series [11] and in series [13] were 530 µg·h/mL, 136 µg·h/mL and 30.6 µg·h/mL, respectively. In addition, the values for the Cmax in series [2], in series [5] and in series [10] were 5360 ng/mL, 17800 ng/mL and 2270 ng/mL, respectively. Besides, the outcome in [3], in [18] and in [24] was inactive. Further, the figures for the CL/F in [4], in series [9] and in series [19] were 0.5 mL/min/kg, 0.667 mL/min/kg and 0.117 mL/min/kg, respectively. Besides, in series [6], the IC50 was over 50000 nM. In addition, the figures for the Emax in [7] and in series [21] were 120% and 40%, respectively. The same compound returned a logD in [8] of under 3. For the same compound, the half-life was 26.4 h in [12], 18 h in series [15] and 26.8 h in [25]. The inhibition in vivo at 6 mg/kg worked out at 24.4% with Rhesus monkey [16] and 32.1% in the series with Rhesus monkey [17]. Also, the inhibition in vivo at 50 mg/kg in the series on Mus musculus [20] was 4.9%. Moreover, the values for the EC50 in series [23] and in series [28] were 13.5 nM and 77 nM, respectively.

For `Cc1cc(OCCCS(C)(=O)=O)cc(C)c1-c1cccc(COc2ccc3c(c2)OC[C@H]3CC(=O)O)c1`, in the series on Mus musculus [29], the outcome was Active. In addition, the results for the inhibition in vivo at 20 mg/kg in the series on Rhesus monkey [14] and with Rhesus monkey [22] were 15% and 14.7%, respectively. Also, in series [28], the EC50 stood at 93 nM.
